In publication PMC10578352, “Identification of a Protein Arginine Methyltransferase 7 (PRMT7)/Protein Arginine Methyltransferase 9 (PRMT9) Inhibitor” (Journal of Medicinal Chemistry, 2023):

Experiments:
human recombinant PRMT9 = target: T1, human recombinant PRMT9 (Homo sapiens, UniProt Q6P2P2); experiment: AlphaLISA PRMT9 activity assay (modified BPS kit, biotinylated SF3B2 peptide); assay type: biochemical; conditions: PRMT9 0.105 μM, biotinylated SF3B2 (500–519) peptide 100 nM, SAM 25 μM
T1 construct: human recombinant PRMT9 (2–845; N-terminal FLAG-tag, C-terminal His6-tag); FLAG (N); His6 (C); purchased BPS BioScience 79124
T1 sequence (Q6P2P2 2-845): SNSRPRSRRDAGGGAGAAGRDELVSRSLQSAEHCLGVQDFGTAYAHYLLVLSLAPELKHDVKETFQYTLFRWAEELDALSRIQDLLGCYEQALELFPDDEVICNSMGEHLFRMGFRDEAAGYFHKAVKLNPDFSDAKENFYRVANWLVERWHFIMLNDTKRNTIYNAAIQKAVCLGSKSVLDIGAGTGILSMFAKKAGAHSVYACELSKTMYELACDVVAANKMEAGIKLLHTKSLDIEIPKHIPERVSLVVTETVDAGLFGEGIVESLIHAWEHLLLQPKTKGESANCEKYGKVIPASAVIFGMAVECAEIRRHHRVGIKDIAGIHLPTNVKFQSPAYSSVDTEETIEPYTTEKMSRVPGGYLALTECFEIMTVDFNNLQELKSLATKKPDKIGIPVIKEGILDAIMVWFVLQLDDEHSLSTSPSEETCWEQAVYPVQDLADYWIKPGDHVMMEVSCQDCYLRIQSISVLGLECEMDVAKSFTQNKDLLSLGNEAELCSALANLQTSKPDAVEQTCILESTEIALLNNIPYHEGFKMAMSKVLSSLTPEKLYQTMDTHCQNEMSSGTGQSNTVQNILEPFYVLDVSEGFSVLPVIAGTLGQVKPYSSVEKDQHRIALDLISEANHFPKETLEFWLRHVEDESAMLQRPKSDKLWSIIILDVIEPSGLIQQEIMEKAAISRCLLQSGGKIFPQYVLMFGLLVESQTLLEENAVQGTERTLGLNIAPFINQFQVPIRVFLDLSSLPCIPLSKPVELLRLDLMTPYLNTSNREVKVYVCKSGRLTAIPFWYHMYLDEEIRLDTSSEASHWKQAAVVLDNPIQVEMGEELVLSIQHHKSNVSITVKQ
Description: Accordingly, all the enzymatic inhibition data were obtained by performing the assays in these optimized conditions.
The reaction was incubated for 60 min. Afterward, in each well, 5 μL of a 1:100 dilution of Primary antibody 28 (BPS BioScience, #52140Z3) in Detection buffer (BPS BioScience) and 5 μL of anti-Rabbit acceptor beads (PerkinElmer, #AL104C) were added to obtain a final concentration of 20 μg/mL.
For each incubation step, the OptiPlate was sealed with a protective foil to prevent evaporation and contamination. Donor and Acceptor beads were added to the mixture in subdued light.
The 100% activity (positive control) was reached using vehicle (DMSO), while 0% activity (negative control) was obtained without the protein. Data were analyzed by using Excel and Prism software. Values obtained for each compound are mean ± SD determined for three separate experiments.

CePRMT7 = target: T2, CePRMT7 (Caenorhabditis elegans, UniProt Q9XW42); experiment: Radioisotope-based assay (SDS-PAGE, fluorography, densitometry), CePRMT7; assay type: biochemical; conditions: substrate HsH2B, 15 °C, read-out: % CePRMT7 residual activity
T2 construct: made in house; host or cells: E. coli
Description: Based on these outcomes, we resolved to explore the effect on the capability to inhibit PRMT9 enzymatic activity of further reduction of the distance between the pharmacophoric moieties. […] After the experiment was repeated with 100, 250, and 500 μM concentrations of each inhibitor, half inhibition was observed only at a concentration of roughly 250 μM (Figure 4d).
[…]. The experiments were performed as reported in the Experimental procedures section. GST-HsPRMT9 (a) and GST-HsPRMT7 (b) were incubated with human GST-SF3B2 (401–550) peptide or recombinant HsH2B, respectively (1 μg of enzyme, 5 μg of substrate), 0.14 μM [^3H]SAM, and the indicated concentrations of tested compounds at the corresponding optimal reaction temperature (37 °C for HsPRMT9, 15 °C for HsPRMT7). C. elegans GST-tagged enzymes PRMT9 (c) and PRMT7 (d) were incubated with GST-CeSFTB-2 (99–248) fragment or recombinant HsH2B, respectively (1 μg of enzyme, 5 μg of substrate), 0.14 μM [^3H]SAM, and the indicated concentrations of tested compounds at the corresponding optimal reaction temperature (25 °C for CePRMT9, 15 °C for CePRMT7). After SDS-PAGE, the gels were treated as previously described[48] and densitometry analysis was done using ImageJ software, and data was plotted as normalized activity to the no inhibitor controls.
Human PRMT9, C. elegans PRMT9, human PRMT7, and C. elegans PRMT7 plasmids were sequenced, expressed in E. coli as GST-fusion proteins, and purified as previously described.[48] Substrates were also sequenced and purified as described [human GST-SF3B2 (401–550);[13]C. elegans SFTB-2;[48] human histone H2B (New England Biolabs, M2505S)]. Xenopus laevis histone H2B was expressed in E. coli and purified similarly to what was previously reported by Luger et al.[72]
Reactions consisting of approximately 1 μg of enzyme (human or C. elegans GST-tagged enzymes PRMT9 and PRMT7), reacted with approximately 5 μg of substrate [for human PRMT9, human GST-SF3B2 401–550 fragment; C. elegans PRMT9 with C. elegans GST-SFTB-2 (99–248) fragment, or recombinant human histone H2B from New England Biolabs (M2505S)], were incubated for the indicated time in reaction buffer {50 mM potassium HEPES buffer, 10 mM NaCl, 1 mM dithiothreitol (DTT), pH 8.0 with 0.7 μM S-adenosyl-L-[methyl-^3H]methionine (^3H-AdoMet, PerkinElmer Life Sciences, 82.7 Ci/mmol, 0.55 mCi/mL in 10 mM H2SO4/EtOH [9:1 (v/v)])} in a final reaction volume of 60 μL. Each reaction was incubated at the corresponding optimal reaction temperature (37 °C for human PRMT9, 25 °C for C. elegans PRMT9, and 15 °C for C. elegans and human PRMT7 enzymes. MTA was dissolved in water, and a wavelength scan was taken to determine the final concentration using the extinction coefficient. The final concentrations used are indicated in the figure legends. […]. EML734, EML736, and EML709 were also dissolved in DMSO, and further dilutions were made in DMSO for the working stocks. For controls, no inhibitor reactions were created by the addition of the respective solvent (water for MTA and DMSO for EPZ015666 and EML inhibitors).
After the reaction incubations with the various concentrations of inhibitors, the reactions were quenched by adding 0.2 volume of 5× SDS sample loading buffer, and subsequently, the reactions were run on a 12.6% polyacrylamide Tris gel. To collect the radioactive signal, the gels were then treated in the same way as previously described.[48]
After various exposures were collected to ensure linear detection, densitometry analysis was done using ImageJ software, and data were plotted as normalized activity to the no inhibitor controls.

T2 sequence (Q9XW42 whole entry): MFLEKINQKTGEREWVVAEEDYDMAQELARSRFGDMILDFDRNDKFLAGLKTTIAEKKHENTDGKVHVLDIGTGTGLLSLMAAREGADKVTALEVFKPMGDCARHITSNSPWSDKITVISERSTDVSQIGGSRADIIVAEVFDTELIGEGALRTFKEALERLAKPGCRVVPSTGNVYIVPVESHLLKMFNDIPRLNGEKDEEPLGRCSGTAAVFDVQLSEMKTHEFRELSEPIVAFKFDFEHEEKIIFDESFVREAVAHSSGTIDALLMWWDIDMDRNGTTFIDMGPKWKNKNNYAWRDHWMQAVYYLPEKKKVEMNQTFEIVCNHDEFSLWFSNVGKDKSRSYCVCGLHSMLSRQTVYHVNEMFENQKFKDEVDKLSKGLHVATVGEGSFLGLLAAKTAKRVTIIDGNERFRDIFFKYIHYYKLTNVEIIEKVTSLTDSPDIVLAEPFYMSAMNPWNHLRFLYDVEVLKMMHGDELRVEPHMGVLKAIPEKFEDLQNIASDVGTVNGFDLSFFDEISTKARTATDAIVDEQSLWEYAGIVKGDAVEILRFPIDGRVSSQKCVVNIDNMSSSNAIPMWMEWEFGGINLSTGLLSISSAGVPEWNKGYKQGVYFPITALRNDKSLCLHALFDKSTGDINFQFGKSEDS

Row | IC50 (human recombinant PRMT9) | remaining activity at 100 µM (CePRMT7) | remaining activity at 250 µM (CePRMT7) | remaining activity at 500 µM (CePRMT7) | SMILES
1 | 890 nM | 19.6% | 12.5% | 0.92% | COC(=O)c1cc(O)c2cc(NC(=O)NCCCNC(=N)NC[C@H]3O[C@@H](n4cnc5c(N)ncnc54)[C@H](O)[C@@H]3O)ccc2c1 [1a]
2 | 1320 nM | 34.8% | 8.62% | 5.19% | COC(=O)c1cc(O)c2cc(NC(=O)NCCCCNC(=N)NC[C@H]3O[C@@H](n4cnc5c(N)ncnc54)[C@H](O)[C@@H]3O)ccc2c1 [1b]
3 | 5800 nM | 26.1% | 6.92% | 2.32% | COC(=O)c1cc(O)c2cc(NC(=O)NCCCCCNC(=N)NC[C@H]3O[C@@H](n4cnc5c(N)ncnc54)[C@H](O)[C@@H]3O)ccc2c1 [1c]
4 | 200 nM |  |  |  | COC(=O)c1cc(O)c2cc(NC(=O)NCCCNC(=N)NC[C@H]3O[C@@H](n4cnc5c(N)ncnc54)[C@H](O)[C@@H]3O)cc(C(F)(F)F)c2c1 [1j, Methyl 6-(3-(3-(3-(((2R,3S,4R,5R)-5-(6-Amino-9H-purin-9-yl)-3,4-dihydroxytetrahydrofuran-2-yl)methyl)guanidino)propyl)ureido)-4-hydroxy-8-(trifluoromethyl)-2-naphthoate]
